Literature values, collected in US20250186477A1, “COMPOSITIONS COMPRISING FLUDARABINE PHOSPHATE AND METHODS OF MAKING AND USING SAME TO TREAT CANCER” (Areva Pharmaceuticals Limited, priority 2023, published 2025).

Details: refractory chronic lymphocytic leukemia patients receiving 22-40 mg/m^2 or 15-25 mg/m^2 fludarabine daily

For `Nc1nc(F)nc2c1ncn2[C@@H]1O[C@H](CO)[C@@H](O)[C@@H]1O` [fludarabine, (2R,3S,4S,5R)-2-(6-amino-2-fluoropurin-9-yl)-5-(hydroxymethyl)oxolane-3,4-diol], the pneumonia is given as “high rates of pneumonia”.
